Molecules are shown by their SMILES. Structures can show the parent of a compound that is named as a salt.

This series in a line: Conversion of API to insoluble tannate complex in reaction mixtures (centrifugation, % converted insoluble). The class given is physicochemical. To be noted: for conversion to the tannate complex at reduced Neusilin® levels: ½ (4.4 wt%) and ¼ (2.2 wt%) Neusilin®. As for the experimental part:
The following example is a series of reaction mixtures for suspension formulations containing phenylephrine HCl, tannic acid and MAS or various concentrations of Neusilin®:
Analysis of the above suspensions was carried out by removing 10 gms of product and centrifuging. The amount of API found in the insoluble portion of the suspension was reported as the % converted insoluble and the liquid portion as the % converted soluble.
Analysis of the above suspension was carried out by removing 10 gms of product and centrifuging. The amount of API found in the insoluble portion of the suspension was reported as the % converted insoluble and the liquid portion as the % converted soluble.

Turning to `CCN(CC)CCOCCOC(=O)C1(c2ccccc2)CCCC1` [carbetapentane, Carbetapentane Citrate], the “conversion to the tannate complex at reduced Neusilin® levels” value is on record as “same level of conversion”. The “effect of Neusilin® on level of conversion to the tannate complex compared to MAS” value (Neusilin® versus MAS, FIG. 2, FIG. 3) is given as “does not significantly affect the level of conversion”.
Take `CNC[C@H](O)c1cccc(O)c1` [phenylephrine, Phenylephrine HCl]: the “conversion to the tannate complex at reduced Neusilin® levels” value is recorded as “same increase in conversion”. In addition, under “Neusilin® 8.7 wt% versus MAS 8.7 wt%, FIG. 1”, the “increase in conversion to the tannate complex with Neusilin® in the suspension” value is listed as above 30%.
